Results on 18 compounds are retold here after patent publication US20260193293A1, “PEPTIDES CAPABLE OF INHIBITING PROTEIN-PROTEIN INTERACTIONS AT GABAB1A SUBUNIT AND USES THEREOF” (UNIVERSITY OF COPENHAGEN, priority 2022, published 2026).

Residues, ends and D or L forms follow the SMILES beside them.

The target of the first assay is Sushi domains (SD1/2) protein. The assay is described as follows: Fluorescence polarization (FP) competition assay with AJAP-1probe, calculated Ki. Format: binding. The following applies: Table 4, truncation and elongation scans of APP epitope; read-out: Ki (nM) mean ± SEM. The method, then:
Fluorescence polarization (FP). FP assay was employed to determine the binding affinity of peptides in flat bottom black 384-well plates (Corning Life Science) using a Safire2 plate reader (Tecan). All experiments were conducted in 1×PBS (pH 7.4) containing 1% bovine serum albumin (BSA) at rt. The fluorescence polarization values were measured using excitation/emission wavelengths of 530/580 nm. The instrumental Z-factor was adjusted to obtain the maximum fluorescence intensity and the G-factor was calibrated to give an initial millipolarization value of 20 mP. All FP assays including saturation or competition experiments were performed using 25 nM of TAMRA labeled peptides as probes. For saturation assay, the millipolarization values were measured after mixing of probes with 12 serial 1 to 1 diluted concentrations of Sushi domains (SD1/2) protein. All experiments were performed in triplicate and the data were plotted to the one-site binding model using GraphPad Prism 9 to calculate the Kd of probes. […] The experiments were performed at least in triplicate and the data were fitted to the sigmoidal dose response curve using GraphPad Prism 9 to obtain the IC50 of peptides. The Ki values were calculated according to Nikolovska-Coleska et al^310.
Turning to `CC(=O)N[C@@H](CC(=O)O)C(=O)N[C@@H](CO)C(=O)N[C@@H](C)C(=O)N[C@@H](CC(=O)O)C(=O)N[C@@H](C)C(=O)N[C@@H](CCC(=O)O)C(=O)N[C@@H](CCC(=O)O)C(=O)N[C@@H](CC(=O)O)C(=O)N[C@@H](CC(=O)O)C(=O)N[C@@H](CO)C(=O)N[C@@H](CC(=O)O)C(=O)N[C@H](C(=O)N[C@@H](Cc1c[nH]c2ccccc12)C(=O)N[C@@H](Cc1c[nH]c2ccccc12)C(=O)NCC(=O)NCC(=O)N[C@@H](C)C(=O)N[C@@H](CC(=O)O)C(=O)N[C@H](C(=O)N[C@@H](CC(=O)O)C(=O)N[C@@H](Cc1ccc(O)cc1)C(=O)N[C@@H](C)C(=O)N[C@@H](CC(=O)O)C(N)=O)[C@@H](C)O)C(C)C` (Ac-DSADAEEDDSDVWWGGADTDYAD-NH2), the Ki is 513 ± 17 nM.

On to `CC(=O)N[C@@H](CC(=O)O)C(=O)N[C@@H](CO)C(=O)N[C@@H](CC(=O)O)C(=O)N[C@H](C(=O)N[C@@H](Cc1c[nH]c2ccccc12)C(=O)N[C@@H](Cc1c[nH]c2ccccc12)C(=O)NCC(=O)NCC(=O)N[C@@H](C)C(=O)N[C@@H](CC(=O)O)C(=O)N[C@H](C(=O)N[C@@H](CC(=O)O)C(=O)N[C@@H](Cc1ccc(O)cc1)C(=O)N[C@@H](C)C(=O)N[C@@H](CC(=O)O)C(N)=O)[C@@H](C)O)C(C)C` (Ac-DSDVWWGGADTDYAD-NH2), for which the Ki was 1500 ± 66 nM.

On to `CC(=O)N[C@@H](CC(=O)O)C(=O)N[C@H](C(=O)N[C@@H](Cc1c[nH]c2ccccc12)C(=O)N[C@@H](Cc1c[nH]c2ccccc12)C(=O)NCC(=O)NCC(=O)N[C@@H](C)C(=O)N[C@@H](CC(=O)O)C(=O)N[C@H](C(=O)N[C@@H](CC(=O)O)C(=O)N[C@@H](Cc1ccc(O)cc1)C(=O)N[C@@H](C)C(=O)N[C@@H](CC(=O)O)C(N)=O)[C@@H](C)O)C(C)C` (Ac-DVWWGGADTDYAD-NH2), for which the Ki is 6100 ± 307 nM.

The assay is the same for the next values; noted with them: Table 7, Ala-, D-amino acids and N-methylation scans of APPWT; read-out: Ki (nM) mean ± SEM.
Turning to `CC(=O)N[C@@H](CCC(=O)O)C(=O)N[C@@H](C)C(=O)N[C@@H](CC(=O)O)C(=O)N[C@@H](CO)C(=O)N[C@@H](CC(=O)O)C(=O)N[C@H](C(=O)N[C@@H](Cc1c[nH]c2ccccc12)C(=O)N[C@@H](Cc1c[nH]c2ccccc12)C(=O)NCC(=O)NCC(=O)N[C@@H](C)C(=O)N[C@@H](CC(=O)O)C(=O)N[C@H](C(=O)N[C@@H](CC(=O)O)C(N)=O)[C@@H](C)O)C(C)C` (Ac-EADSDVWWGGADTD-NH2), the Ki is 1240 ± 65 nM.

As to `CC(=O)N[C@@H](CCC(=O)O)C(=O)N[C@@H](CC(=O)O)C(=O)N[C@@H](C)C(=O)N[C@@H](CO)C(=O)N[C@@H](CC(=O)O)C(=O)N[C@H](C(=O)N[C@@H](Cc1c[nH]c2ccccc12)C(=O)N[C@@H](Cc1c[nH]c2ccccc12)C(=O)NCC(=O)NCC(=O)N[C@@H](C)C(=O)N[C@@H](CC(=O)O)C(=O)N[C@H](C(=O)N[C@@H](CC(=O)O)C(N)=O)[C@@H](C)O)C(C)C` (Ac-EDASDVWWGGADTD-NH2), the Ki is 1830 ± 54 nM.

Regarding `CC(=O)N[C@@H](CCC(=O)O)C(=O)N[C@@H](CC(=O)O)C(=O)N[C@@H](CC(=O)O)C(=O)N[C@@H](C)C(=O)N[C@@H](CC(=O)O)C(=O)N[C@H](C(=O)N[C@@H](Cc1c[nH]c2ccccc12)C(=O)N[C@@H](Cc1c[nH]c2ccccc12)C(=O)NCC(=O)NCC(=O)N[C@@H](C)C(=O)N[C@@H](CC(=O)O)C(=O)N[C@H](C(=O)N[C@@H](CC(=O)O)C(N)=O)[C@@H](C)O)C(C)C` (Ac-EDDADVWWGGADTD-NH2), the Ki is 660 ± 21 nM.

As for `CC(=O)N[C@@H](CCC(=O)O)C(=O)N[C@@H](CC(=O)O)C(=O)N[C@@H](CC(=O)O)C(=O)N[C@@H](CO)C(=O)N[C@@H](C)C(=O)N[C@H](C(=O)N[C@@H](Cc1c[nH]c2ccccc12)C(=O)N[C@@H](Cc1c[nH]c2ccccc12)C(=O)NCC(=O)NCC(=O)N[C@@H](C)C(=O)N[C@@H](CC(=O)O)C(=O)N[C@H](C(=O)N[C@@H](CC(=O)O)C(N)=O)[C@@H](C)O)C(C)C` (Ac-EDDSAVWWGGADTD-NH2), the Ki was 3076 ± 22 nM.

As for `CC(=O)N[C@@H](CCC(=O)O)C(=O)N[C@@H](CC(=O)O)C(=O)N[C@@H](CC(=O)O)C(=O)N[C@@H](CO)C(=O)N[C@@H](CC(=O)O)C(=O)N[C@H](C(=O)N[C@@H](C)C(=O)N[C@@H](Cc1c[nH]c2ccccc12)C(=O)NCC(=O)NCC(=O)N[C@@H](C)C(=O)N[C@@H](CC(=O)O)C(=O)N[C@H](C(=O)N[C@@H](CC(=O)O)C(N)=O)[C@@H](C)O)C(C)C` (Ac-EDDSDVAWGGADTD-NH2), the Ki is 8790 ± 92 nM.

In the case of `CC(=O)N[C@@H](CCC(=O)O)C(=O)N[C@@H](CC(=O)O)C(=O)N[C@@H](CC(=O)O)C(=O)N[C@@H](CO)C(=O)N[C@@H](CC(=O)O)C(=O)N[C@H](C(=O)N[C@@H](Cc1c[nH]c2ccccc12)C(=O)N[C@@H](Cc1c[nH]c2ccccc12)C(=O)NCC(=O)NCC(=O)N[C@@H](C)C(=O)N[C@@H](C)C(=O)N[C@H](C(=O)N[C@@H](CC(=O)O)C(N)=O)[C@@H](C)O)C(C)C` (Ac-EDDSDVWWGGAATD-NH2), the Ki was 653 ± 25 nM.

In the case of `CC(=O)N[C@@H](CCC(=O)O)C(=O)N[C@@H](CC(=O)O)C(=O)N[C@@H](CC(=O)O)C(=O)N[C@@H](CO)C(=O)N[C@@H](CC(=O)O)C(=O)N[C@H](C(=O)N[C@@H](Cc1c[nH]c2ccccc12)C(=O)N[C@@H](Cc1c[nH]c2ccccc12)C(=O)NCC(=O)NCC(=O)N[C@@H](C)C(=O)N[C@@H](CC(=O)O)C(=O)N[C@@H](C)C(=O)N[C@@H](CC(=O)O)C(N)=O)C(C)C` (Ac-EDDSDVWWGGADAD-NH2), the Ki was 480 ± 8 nM.

As for `CC(=O)N[C@@H](CCC(=O)O)C(=O)N[C@@H](CC(=O)O)C(=O)N[C@@H](CC(=O)O)C(=O)N[C@@H](CO)C(=O)N[C@@H](CC(=O)O)C(=O)N[C@H](C(=O)N[C@@H](Cc1c[nH]c2ccccc12)C(=O)N[C@@H](Cc1c[nH]c2ccccc12)C(=O)NCC(=O)NCC(=O)N[C@@H](C)C(=O)N[C@@H](CC(=O)O)C(=O)N[C@H](C(=O)N[C@@H](C)C(N)=O)[C@@H](C)O)C(C)C` (Ac-EDDSDVWWGGADTA-NH2), the Ki is 786 ± 29 nM.

Still in this assay, the particulars now being: Table 7, cells printed in μM; read-out: Ki (nM) mean ± SEM.
On to `CC(=O)N[C@@H](CCC(=O)O)C(=O)N[C@@H](CC(=O)O)C(=O)N[C@@H](CC(=O)O)C(=O)N[C@@H](CO)C(=O)N[C@@H](CC(=O)O)C(=O)N[C@@H](C)C(=O)N[C@@H](Cc1c[nH]c2ccccc12)C(=O)N[C@@H](Cc1c[nH]c2ccccc12)C(=O)NCC(=O)NCC(=O)N[C@@H](C)C(=O)N[C@@H](CC(=O)O)C(=O)N[C@H](C(=O)N[C@@H](CC(=O)O)C(N)=O)[C@@H](C)O` (Ac-EDDSDAWWGGADTD-NH2), for which the Ki is > 62500 nM.

On to `CC(=O)N[C@@H](CCC(=O)O)C(=O)N[C@@H](CC(=O)O)C(=O)N[C@@H](CC(=O)O)C(=O)N[C@@H](CO)C(=O)N[C@@H](CC(=O)O)C(=O)N[C@H](C(=O)N[C@@H](Cc1c[nH]c2ccccc12)C(=O)N[C@@H](C)C(=O)NCC(=O)NCC(=O)N[C@@H](C)C(=O)N[C@@H](CC(=O)O)C(=O)N[C@H](C(=O)N[C@@H](CC(=O)O)C(N)=O)[C@@H](C)O)C(C)C` (Ac-EDDSDVWAGGADTD-NH2), for which the Ki is > 62500 nM.

Staying with this assay, now noted: Table 10, deep mutational scanning validation variants of APPWT; read-out: Ki (nM) mean ± SEM.
As for `CC[C@H](C)[C@H](NC(=O)[C@H](CC(=O)O)NC(=O)[C@H](CO)NC(=O)[C@H](CC(=O)O)NC(=O)[C@H](CC(=O)O)NC(=O)[C@H](CCC(=O)O)NC(C)=O)C(=O)N[C@@H](Cc1c[nH]c2ccccc12)C(=O)N[C@@H](Cc1c[nH]c2ccccc12)C(=O)NCC(=O)NCC(=O)N[C@@H](C)C(=O)N[C@@H](CC(=O)O)C(=O)N[C@H](C(=O)N[C@@H](CC(=O)O)C(N)=O)[C@@H](C)O` (Ac-EDDSDIWWGGADTD-NH2), the Ki is 401 ± 7 nM.

As to `CC(=O)N[C@@H](CCC(=O)O)C(=O)N[C@@H](CC(=O)O)C(=O)N[C@@H](CC(=O)O)C(=O)N[C@@H](CO)C(=O)N[C@@H](CC(=O)O)C(=O)N[C@H](C(=O)N[C@@H](CC(=O)O)C(=O)N[C@@H](Cc1c[nH]c2ccccc12)C(=O)NCC(=O)NCC(=O)N[C@@H](C)C(=O)N[C@@H](CC(=O)O)C(=O)N[C@H](C(=O)N[C@@H](CC(=O)O)C(N)=O)[C@@H](C)O)C(C)C` (Ac-EDDSDVDWGGADTD-NH2), the Ki was 4804 ± 43 nM.

On to `CC[C@H](C)[C@H](NC(=O)[C@@H](NC(=O)[C@H](CC(=O)O)NC(=O)[C@H](CO)NC(=O)[C@H](CC(=O)O)NC(=O)[C@H](CC(=O)O)NC(=O)[C@H](CCC(=O)O)NC(C)=O)C(C)C)C(=O)N[C@@H](Cc1c[nH]c2ccccc12)C(=O)NCC(=O)NCC(=O)N[C@@H](C)C(=O)N[C@@H](CC(=O)O)C(=O)N[C@H](C(=O)N[C@@H](CC(=O)O)C(N)=O)[C@@H](C)O` (Ac-EDDSDVIWGGADTD-NH2), for which the Ki is 951 ± 20 nM.

As for `CC(=O)N[C@@H](CCC(=O)O)C(=O)N[C@@H](CC(=O)O)C(=O)N[C@@H](CC(=O)O)C(=O)N[C@@H](CO)C(=O)N[C@@H](CC(=O)O)C(=O)N[C@H](C(=O)N[C@@H](Cc1c[nH]c2ccccc12)C(=O)N[C@@H](Cc1c[nH]c2ccccc12)C(=O)N[C@@H](CC(=O)O)C(=O)NCC(=O)N[C@@H](C)C(=O)N[C@@H](CC(=O)O)C(=O)N[C@H](C(=O)N[C@@H](CC(=O)O)C(N)=O)[C@@H](C)O)C(C)C` (Ac-EDDSDVWWDGADTD-NH2), the Ki was 429 ± 7 nM.

As for `CC(=O)N[C@@H](CCC(=O)O)C(=O)N[C@@H](CC(=O)O)C(=O)N[C@@H](CC(=O)O)C(=O)N[C@@H](CO)C(=O)N[C@@H](CC(=O)O)C(=O)N[C@H](C(=O)N[C@@H](Cc1c[nH]c2ccccc12)C(=O)N[C@@H](Cc1c[nH]c2ccccc12)C(=O)NCC(=O)NCC(=O)N[C@@H](C)C(=O)N[C@@H](CC(=O)O)C(=O)N[C@@H](Cc1c[nH]cn1)C(=O)N[C@@H](CC(=O)O)C(N)=O)C(C)C` (Ac-EDDSDVWWGGADHD-NH2), the Ki is 739 ± 9 nM.
